Test results as given in paper PMC8209957 (Cell, 2021).

Biological target: MEK1-C222 (Homo sapiens, UniProt Q02750, S222C/C277S/C376S)
Assay: differential scanning fluorimetry
Format: binding
Conditions: thermal shift with and without Mg2+; values only in figure

## Nc1ncnc2c1ncn2[C@@H]1O[C@H](COP(=O)(O)OP(=O)(O)OP(O)(O)=S)[C@@H](O)[C@H]1O [ATPγS]
  differential scanning fluorimetry: to form MEK1•ATP(±Mg) and MEK1•ATPγS(±Mg)
